This passage reports ED50 and MIC results from patent US4022895A, “Substituted phenylglycylcephalosporins” (SmithKline Corporation, priority 1975, dated 1977).

For test [1], the system named is Klebs.pneumo. 4200. Description: In vivo activity (ED50) against Klebs.pneumo. 4200.
Test [2] deals with Entero. aerog. ATCC 13048. Description: In vitro antibacterial activity (MIC). It counts as cell-based. To be noted: Entero. aerog. ATCC 13048, in vitro; read-out: MIC. The procedure:
(§1) The compounds of this invention have antibacterial activity against Gram-positive and Gram-negative organisms. Minimum inhibitory concentrations (MIC's) ranged from 0.4 to >200 μg/ml in in vitro testing.

Test [3] concerns E.coli SK 12140. Put plainly: In vitro antibacterial activity (MIC). The class given is cell-based. Conditions: Escherichia coli, SK12140; E.coli SK 12140, in vitro; read-out: MIC. The method, then:
as §1

The test system of test [4] is Strep. faecalis HH 34358. Put plainly: In vitro antibacterial activity (MIC). It counts as cell-based. Conditions: Enterococcus faecalis, HH34358; Strep. faecalis HH 34358, in vitro. The procedure: as §1
Test [5] has as its system Kleb. pneumo. SK 4200. Put plainly: In vitro antibacterial activity (MIC). It counts as cell-based. The method, then:
as §1

The test system of test [6] is E. coli HH 33779. Description: In vitro antibacterial activity (MIC). The class given is cell-based. To be noted: Escherichia coli, HH33779. The procedure:
as §1

Test [7] relates to S.aureus HH 127. Description: In vitro antibacterial activity (MIC). It counts as cell-based. Conditions: Staphylococcus aureus, HH127. The method, then:
as §1

For test [8], the system named is S.aureus Villaluz. Put plainly: In vitro antibacterial activity (MIC). Conditions: Staphylococcus aureus. The class given is cell-based. The method, then:
as §1

Test [9] has as its system S.aureus SK 23390. Description: In vitro antibacterial activity (MIC). It counts as cell-based. To be noted: Staphylococcus aureus, SK23390. The procedure:
as §1

The test system of test [10] is Kleb. pneumo. SK 1200. Description: In vitro antibacterial activity (MIC). It counts as cell-based. Conditions: Kleb. pneumo. SK 1200, in vitro; read-out: MIC. The method, then:
as §1

Test [11] relates to Proteus morgani 179. Description: In vitro antibacterial activity (MIC). It counts as cell-based. Conditions: Proteus morgani 179, in vitro. The method, then:
as §1

Test [12] deals with E.coli 12140. Put plainly: In vivo activity (ED50) against E.coli 12140.
[13] abbreviates: po, Klebs.pneumo. 4200, p.o., read-out: ED50.
The mark [14] stands for this setting: sc, Klebs.pneumo. 4200, s.c., read-out: ED50.
The mark [15] stands for this setting: Kleb. pneumo. SK 4200, in vitro, read-out: MIC.
Where [16] appears, read: E. coli HH 33779, in vitro, read-out: MIC.
[17] abbreviates: S.aureus HH 127, in vitro, read-out: MIC.
[18] abbreviates: S.aureus SK 23390, in vitro, read-out: MIC.
The mark [19] stands for this setting: Escherichia coli, 12140, po, E.coli 12140, p.o.
[20] abbreviates: Escherichia coli, 12140, sc, E.coli 12140, s.c.

Values after ≈ are worked out from the molar mass of the structure shown. Where two headings read alike, the source gives them in different places. Where only a bound is given, the exact number is not on record here.

By ED50 is commonly meant the dose at which the effect has come halfway, by size or by number of responders. By MIC is commonly meant the least concentration at which growth counts as inhibited. `N[C@@H](C(=O)NC1C(=O)N2C(C(=O)O)=C(CSc3c[nH]nn3)CSC12)c1ccc(OCC(=O)O)cc1` (stereo partly drawn) [Compound No. 03326, 7-[D-α-Amino-α-(4'-carboxymethoxyphenyl)acetamido]-3-(1,2,3-triazol-4-ylthiomethyl)-3-cephem-4-carboxylic acid]: the ED50 turned out to be 17.7 mg/kg in test [1] (setting [13]), 4.6 mg/kg in test [1] (setting [14]), 25 mg/kg in [12] (setting [19]) and 8.4 mg/kg in [12] (setting [20]). Further, the MIC in test [2] was 25 µg/mL (≈ 48 µM); in test [3], 6.3 µg/mL (≈ 12.1 µM); in [4], 200 µg/mL (≈ 384 µM); in test [5] (setting [15]) it was 6.3 µg/mL (≈ 12.1 µM); in test [6] (setting [16]), 25 µg/mL (≈ 48 µM); in test [7] (setting [17]), 12.5 µg/mL (≈ 24 µM). The MIC stood at 200 µg/mL (≈ 384 µM) in test [8], 100 µg/mL (≈ 192 µM) in test [9] (setting [18]), 3.1 µg/mL (≈ 5.96 µM) in test [10] and 200 µg/mL (≈ 384 µM) in test [11] (read-out: MIC).

On to `Cn1nnnc1SCC1=C(C(=O)O)N2C(=O)C(NC(=O)[C@H](N)c3ccc(SCC(=O)O)cc3)C2SC1` (stereo partly drawn) [Compound No. 70326, 7-[D-α-Amino-α-(4'-carboxymethylthiophenyl)acetamido]-3-(1-methyl-1,2,3,4-tetrazol-5-ylthiomethyl)-3-cephem-4-carboxylic acid], for which the ED50 in test [1] (Klebs.pneumo. 4200, p.o.) was 3 mg/kg; in [1] (Klebs.pneumo. 4200, s.c.) it was less than 3 mg/kg; in [1] (setting [13]), 4 mg/kg; in [1] (setting [14]), 1.7 mg/kg; in [12] (setting [19]), 11 mg/kg; in [12] (setting [20]), 2.2 mg/kg. Besides, the MIC in [11] (read-out: MIC) was 6.3 µg/mL (≈ 11.4 µM).

With `Cc1nnc(SCC2=C(C(=O)O)N3C(=O)C(NC(=O)[C@H](N)c4ccc(OCC(N)=O)cc4)C3SC2)s1` (stereo partly drawn) [Compound No. 71816, 7-[D-α-Amino-α-(4'-carbamylmethoxyphenyl)acetamido]-3-(5-methyl-1,3,4-thiadiazol-2-ylthiomethyl)-3-cephem-4-carboxylic acid], the ED50 in test [1] (setting [13]) is 6.2 mg/kg; in test [1] (setting [14]), 7.5 mg/kg; in test [12] (setting [19]), 12.5 mg/kg; in test [12] (setting [20]), 4.5 mg/kg. Further, the MIC in test [3] worked out at 6.3 µg/mL (≈ 11.4 µM); in test [4], 25 µg/mL (≈ 45.4 µM); in test [5] (setting [15]), 3.1 µg/mL (≈ 5.63 µM); in [6], 12.5 µg/mL (≈ 22.7 µM); in test [8] it was 25 µg/mL (≈ 45.4 µM); in test [10] it was 6.3 µg/mL (≈ 11.4 µM). In addition, the MIC is 200 µg/mL (≈ 363 µM) in test [11] and 100 µg/mL (≈ 182 µM) in test [11] (read-out: MIC).

`Cc1nnc(SCC2=C(C(=O)O)N3C(=O)C(NC(=O)[C@H](N)c4ccc(NCC(N)=O)cc4)C3SC2)s1` (stereo partly drawn) [Compound No. 72546, 7-[D-α-Amino-α-(4'-carbamylmethylaminophenyl)acetamido]-3-(5-methyl-1,3,4-thiadiazol-2-ylthiomethyl)-3-cephem-4-carboxylic acid]: the MIC in [2] was 50 µg/mL (≈ 91 µM); in [3] it was 25 µg/mL (≈ 45.5 µM); in test [4], 50 µg/mL (≈ 91 µM); in test [5], 12.5 µg/mL (≈ 22.7 µM); in [6] (setting [16]), 50 µg/mL (≈ 91 µM); in test [7], 12.5 µg/mL (≈ 22.7 µM). Moreover, the MIC in [8] was 50 µg/mL (≈ 91 µM); in test [9], 12.5 µg/mL (≈ 22.7 µM); in [10], 25 µg/mL (≈ 45.5 µM); in test [11] (read-out: MIC), more than 200 µg/mL.

`Cc1nnc(SCC2=C(C(=O)O)N3C(=O)C(NC(=O)[C@H](N)c4ccc(SCC(N)=O)cc4)C3SC2)s1` (stereo partly drawn) [Compound No. 86526, 7-[D-α-Amino-α-(4'-carbamylmethylthiophenyl)acetamido]-3-(5-methyl-1,3,4-thiadiazol-2-ylthiomethyl)-3-cephem-4-carboxylic acid]: the ED50 turned out to be 10 mg/kg in test [1] (setting [13]), 7.2 mg/kg in test [1] (setting [14]), 42 mg/kg in test [12] (setting [19]) and 18 mg/kg in test [12] (setting [20]). Also, the MIC was 100 µg/mL (≈ 176 µM) in [2]; 25 µg/mL (≈ 44.1 µM) in [3]; 50 µg/mL (≈ 88.2 µM) in test [4]; 12.5 µg/mL (≈ 22.1 µM) in test [5] (setting [15]); 25 µg/mL (≈ 44.1 µM) in test [6] (setting [16]); 6.3 µg/mL (≈ 11.1 µM) in [7] (setting [17]). Also, the MIC in test [8] is 25 µg/mL (≈ 44.1 µM); in test [9] (setting [18]) it was 3.1 µg/mL (≈ 5.47 µM); in test [10] it was 6.3 µg/mL (≈ 11.1 µM).
